Values of other authors as cited in patent US10828268B2 (priority 2013, dated 2020).

Settings: human, taken orally

Compound: COc1cc(/C=C/C(=O)CC(=O)/C=C/c2ccc(O)c(OC)c2)ccc1O [curcumin]
- oral bioavailability: poorly bioavailable
